The text below walks through data of patent US9849194B2, “Compositions and methods for imaging and treatment” (New York University, priority 2014, dated 2017).

For data set [1], the system named is HCT116 cells. Description: cells. To be noted: Homo sapiens, HCT-116, 48 h.
Description: In order to determine the effectiveness of our nanoparticle system, we conducted a cancer cell viability study on our nanoparticle-drug system and compared it to effectiveness of the free drug (without the NP system). The Promega CellTiter-Blue® Cell Viability Assay was used. The drug, in one condition, and the Drug-NP complex, in another, were incubated with HCT-116 colon cancer cells for 48 hours. Different concentrations of the drug were used (ranging from 0 nM to 500 nM). After the designated incubation time, the IC50—the concentration of the drug needed to inhibit 50% of the cancer cells incubated—was then measured for both conditions.
Data set [2] has as its system HeLa cells. In words: In vitro hyperthermia treatment, HeLa cell viability. It is filed as cell-based. To be noted: 2 hours incubation, with or without hyperthermia treatments. On the procedure:
Cell viability tests in presence and in absence of AMF were performed in order to evaluate the effect of combined treatments (hyperthermia and chemotherapy) on HeLa cell viability (FIG. 31). Hela cells were incubated for two hours with no additives, Dox, CB[7]NPs or Dox-CB[7]NPs. Selected samples were then subjected to an alternating magnetic field (464 kHz) for one hour. […] The lack of significant cytotoxicity in the cells incubated with Dox or CB[7]NPs is consistent with the limited cellular uptake of the free drug or the lack of toxicity of the nanocarrier respectively.
In vitro hyperthermia treatment. Viability tests on HeLa cells were performed to investigate the combined effect of both hyperthermia and chemotherapy treatment. Petri-dishes were seeded with HeLa cells (˜50000 cells/mL) and incubated at 37° C. After 24 hours, DMEM was removed, replaced with the following solutions: DMEM (control), Dox ([Dox]=76 μM) and Dox-CB[7]NPs ([Dox]=76 μM, [Iron]=0.04 M) and incubated for 2 hours. […] Two cell viability readings were taken, immediately after hyperthermia treatment and 18 hours after hyperthermia. For cell viability studies 200 μL of CTB per 1 mL of DMEM was added to each petri-dish and incubated for 6 hours after which the medium with CTB was transferred to 96 well plate to take the fluorescence reading.

Data set [3] concerns HeLa cells. In words: Morphology of HeLa cells after hyperthermia and chemotherapy. The format is cell-based. To be noted: one-hour hyperthermia, confocal microscopy. On the procedure: Morphology of the cells after hyperthermia and chemotherapy. To assess changes in cell morphology, HeLa cells (˜50000 cells/mL) were cultured in petri-dishes and incubated at 37° C. After 24 hours, DMEM was removed, replaced with the following solutions: DMEM (control), Dox ([Dox]=76 μM) and Dox-CB[7]NPs ([Dox]=76 μM, [Iron]=0.04 M) and incubated for 2 hours. After the treatment, the cells were washed with PBS 3 times and 1 mL of DMEM was added. One petri-dish from each condition was subjected to one hour of magnetic hyperthermia (frequency=464 kHz, current=26.8 kAm^−1) while other petri-dishes were used as control.
After magnetic hyperthermia treatment, DMEM was removed, the cells were washed with PBS three times and 1 ml of prepared formaldehyde solution (Vformaldehyde=1 mL, Vdistilled water=9 mL) was added to the cells for […] to fix them. After removal of formaldehyde solution the cells were allowed to dry at room temperature for 48 hours in a dark place to prevent photodegradation of Dox. Confocal microscopy used observe changes in the morphology of treated cells compared to control cells.

The subject of data set [4] is HeLa cells. Description: In vitro cellular uptake in HeLa cells (fluorescence microscopy). The format is cell-based.
Data set [5] concerns HCT116 cells. In words: In vitro cytotoxicity assay, CellTiter-Blue. It is filed as cell-based, human. How it is done: In vitro cytotoxicity assay. Cell viability was evaluated using the Promega CellTiter-Blue® Cell Viability assay. It uses the indicator dye resazurin to measure the metabolic capacity of cells—an indicator of cell viability. Viable cells retain the ability to reduce resazurin into resorufin, which is highly fluorescent. […] HCT116 cells were seeded at a density of 5×10^4 cells per well in 96-well flat-bottom plates and incubated in 10% FBS-medium for 24 hours. […] After 24 hours incubation, cells were washed with phosphate buffered saline (PBS, Amresco Biotechnolgy grade) and incubated with 20 μL of CellTiter-Blue® Reagent for additional 6 hours at 37° C. The fluorescence corresponding to the resorufin (which reflects the relative viable cell number) was measured at 590 nm using a Synergy H1 Hybrid Reader Biotek. The measurement was performed on untreated cells as a blank control.

As usually defined, the IC50 is the concentration that inhibits the measured activity by half. High values mean weaker potency in that assay, low ones greater potency in that assay. Molecule `CC(=O)O[C@H]1C(=O)[C@@]2(C)[C@H]([C@H](OC(=O)c3ccccc3)[C@]3(O)C[C@H](OC(=O)[C@H](O)[C@@H](NC(=O)c4ccccc4)c4ccccc4)C(C)=C1C3(C)C)[C@]1(OC(C)=O)CO[C@@H]1C[C@@H]2O` [Paclitaxel] yielded an IC50 in data set [1] of 71 nM.

`COc1cccc2c1C(=O)c1c(O)c3c(c(O)c1C2=O)C[C@@](O)(C(=O)CO)C[C@@H]3O[C@H]1C[C@H](N)[C@H](O)[C@H](C)O1` [Dox, Doxorubicin]: in data set [2], the reduction in viability entry is “Minimal reductions in viability”. Also, the “cell morphology after hyperthermia session” value in data set [3] is “normal morphology”. Besides, in data set [4] (2 hours, [DOX]=10 μM), the “fluorescence of treated cells” value is on record as “weakly fluorescent”. The “normalized fluorescence intensity relative to red emission of Dox-CB[7]NPs” value in data set [4] (3 hours at 37° C., same dose of Dox, excitation at 488 nm) came to 40%.

Turning to cucurbit[7]uril [CB[7]], the cytotoxic effects entry is “Neither CB[7] nor CB[7]NPs displayed cytotoxic effects” in data set [5] (24 hours of incubation, concentrations as high as 100 μM) and “neither CB[7] nor CB[7]NPs elicit cytotoxic effects” in data set [5] (CB[7] concentrations of 1 to 100 μM, 24 hour incubation).
